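Each compound was tested at five concentrations against cells in 96-well plates for 48 hours. The concentration for full growth arrest is given as TGI.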
Tests used:
Assay in all cases: DTP human tumour cell line panel, 48 h
786-0 renal = tested on: 786-0 renal
A498 renal = tested on: A498 renal
A549 NSCLC = tested on: A549 NSCLC
ACHN renal = tested on: ACHN renal
COLO 205 colon = tested on: COLO 205 colon
DLD-1 colon = tested on: DLD-1 colon
DMS 114 small cell lung = tested on: DMS 114 small cell lung
EKVX NSCLC = tested on: EKVX NSCLC
HCC-2998 colon = tested on: HCC-2998 colon
HCT-116 colon = tested on: HCT-116 colon
HCT-15 colon = tested on: HCT-15 colon
HL-60(TB) leukemia = tested on: HL-60(TB) leukemia
HOP-18 NSCLC = tested on: HOP-18 NSCLC
HOP-62 NSCLC = tested on: HOP-62 NSCLC
HOP-92 NSCLC = tested on: HOP-92 NSCLC
HT29 colon = tested on: HT29 colon
IGROV1 ovarian = tested on: IGROV1 ovarian
K-562 leukemia = tested on: K-562 leukemia
KM12 colon = tested on: KM12 colon
KM20L2 colon = tested on: KM20L2 colon
LOX IMVI melanoma = tested on: LOX IMVI melanoma
M19-MEL melanoma = tested on: M19-MEL melanoma
MALME-3M melanoma = tested on: MALME-3M melanoma
MOLT-4 leukemia = tested on: MOLT-4 leukemia
NCI-H226 lung = tested on: NCI-H226 lung
NCI-H23 lung = tested on: NCI-H23 lung
NCI-H460 lung = tested on: NCI-H460 lung
NCI-H522 lung = tested on: NCI-H522 lung
OVCAR-3 ovarian = tested on: OVCAR-3 ovarian
OVCAR-4 ovarian = tested on: OVCAR-4 ovarian
OVCAR-5 ovarian = tested on: OVCAR-5 ovarian
OVCAR-8 ovarian = tested on: OVCAR-8 ovarian
RPMI-8226 leukemia = tested on: RPMI-8226 leukemia
RXF 393 renal = tested on: RXF 393 renal
SF-268 CNS = tested on: SF-268 CNS
SF-295 CNS = tested on: SF-295 CNS
SF-539 CNS = tested on: SF-539 CNS
SK-MEL-2 melanoma = tested on: SK-MEL-2 melanoma
SK-MEL-28 melanoma = tested on: SK-MEL-28 melanoma
SN12C renal = tested on: SN12C renal
SNB-19 CNS = tested on: SNB-19 CNS
SNB-75 CNS = tested on: SNB-75 CNS
SNB-78 CNS = tested on: SNB-78 CNS
SR leukemia = tested on: SR leukemia
SW-620 colon = tested on: SW-620 colon
TK-10 renal = tested on: TK-10 renal
U251 CNS = tested on: U251 CNS
UO-31 renal = tested on: UO-31 renal
XF 498 CNS = tested on: XF 498 CNS
CAKI-1 renal = tested on: CAKI-1 renal
CCRF-CEM leukemia = tested on: CCRF-CEM leukemia
DMS 273 small cell lung = tested on: DMS 273 small cell lung
LXFL 529 NSCLC = tested on: LXFL 529 NSCLC
M14 melanoma = tested on: M14 melanoma
SK-MEL-5 melanoma = tested on: SK-MEL-5 melanoma
SK-OV-3 ovarian = tested on: SK-OV-3 ovarian
UACC-257 melanoma = tested on: UACC-257 melanoma
UACC-62 melanoma = tested on: UACC-62 melanoma

CCOC(=O)C1SC(=Nc2ccc(Cl)cc2)N=C1C (stereo unspecified)
TGI (786-0 renal): 30.7 µM
TGI (A498 renal): 41.3 µM
TGI (A549 NSCLC): 38.1 µM
TGI (ACHN renal): 49.7 µM
TGI (COLO 205 colon): 32.8 µM
TGI (DLD-1 colon): 28.7 µM
TGI (DMS 114 small cell lung): 81 µM
TGI (EKVX NSCLC): 45.2 µM
TGI (HCC-2998 colon): 31.5 µM
TGI (HCT-116 colon): 30.2 µM
TGI (HCT-15 colon): 30 µM
TGI (HL-60(TB) leukemia): 55.9 µM
TGI (HOP-18 NSCLC): 42.5 µM
TGI (HOP-62 NSCLC): 36.2 µM
TGI (HOP-92 NSCLC): 29.6 µM
TGI (HT29 colon): 30.8 µM
TGI (IGROV1 ovarian): 40 µM
TGI (K-562 leukemia): 43.3 µM
TGI (KM12 colon): 36.1 µM
TGI (KM20L2 colon): 33.4 µM
TGI (LOX IMVI melanoma): 32.5 µM
TGI (M19-MEL melanoma): 33 µM
TGI (MALME-3M melanoma): 35.9 µM
TGI (MOLT-4 leukemia): 48.8 µM
TGI (NCI-H226 lung): 41.9 µM
TGI (NCI-H23 lung): 34.9 µM
TGI (NCI-H460 lung): 45.1 µM
TGI (NCI-H522 lung): 33 µM
TGI (OVCAR-3 ovarian): 47.8 µM
TGI (OVCAR-4 ovarian): 56.1 µM
TGI (OVCAR-5 ovarian): 39.3 µM
TGI (OVCAR-8 ovarian): 43.3 µM
TGI (RPMI-8226 leukemia): 82.3 µM
TGI (RXF 393 renal): 36.3 µM
TGI (SF-268 CNS): 34 µM
TGI (SF-295 CNS): 34.9 µM
TGI (SF-539 CNS): 33 µM
TGI (SK-MEL-2 melanoma): 38.5 µM
TGI (SK-MEL-28 melanoma): 40.9 µM
TGI (SN12C renal): 31.3 µM
TGI (SNB-19 CNS): 35 µM
TGI (SNB-75 CNS): 44.7 µM
TGI (SNB-78 CNS): 89.3 µM
TGI (SW-620 colon): 35.2 µM
TGI (TK-10 renal): 64.4 µM
TGI (U251 CNS): 35.2 µM
TGI (UO-31 renal): 33.7 µM
TGI (XF 498 CNS): 34.2 µM

O=C(/C=C/c1ccccc1)c1ccc(NCc2nc3ccccc3[nH]2)cc1
TGI (786-0 renal): 14.4 µM
TGI (A498 renal): 18.3 µM
TGI (A549 NSCLC): 17.4 µM
TGI (ACHN renal): 20.4 µM
TGI (CAKI-1 renal): 25.2 µM
TGI (CCRF-CEM leukemia): 8.38 µM
TGI (COLO 205 colon): 11.1 µM
TGI (DLD-1 colon): 15.6 µM
TGI (DMS 114 small cell lung): 12.4 µM
TGI (DMS 273 small cell lung): 16 µM
TGI (EKVX NSCLC): 22.5 µM
TGI (HCC-2998 colon): 4.2 µM
TGI (HCT-116 colon): 13 µM
TGI (HCT-15 colon): 15.9 µM
TGI (HL-60(TB) leukemia): > 22.3 µM
TGI (HOP-18 NSCLC): 17.6 µM
TGI (HOP-62 NSCLC): 23.3 µM
TGI (HOP-92 NSCLC): 22.5 µM
TGI (HT29 colon): 7.73 µM
TGI (IGROV1 ovarian): 19.8 µM
TGI (K-562 leukemia): > 26.1 µM
TGI (KM12 colon): 4.54 µM
TGI (KM20L2 colon): 9.06 µM
TGI (LOX IMVI melanoma): 3.76 µM
TGI (LXFL 529 NSCLC): 10.8 µM
TGI (M14 melanoma): 21.4 µM
TGI (M19-MEL melanoma): 14.7 µM
TGI (MALME-3M melanoma): 26.9 µM
TGI (MOLT-4 leukemia): 32.3 µM
TGI (NCI-H226 lung): 16.8 µM
TGI (NCI-H23 lung): 11 µM
TGI (NCI-H460 lung): 12 µM
TGI (NCI-H522 lung): 14.7 µM
TGI (OVCAR-3 ovarian): 9.57 µM
TGI (OVCAR-4 ovarian): 22.8 µM
TGI (OVCAR-5 ovarian): 23.2 µM
TGI (OVCAR-8 ovarian): 14.9 µM
TGI (RXF 393 renal): 16.8 µM
TGI (SF-268 CNS): 20.9 µM
TGI (SF-295 CNS): 13.1 µM
TGI (SF-539 CNS): 5.02 µM
TGI (SK-MEL-2 melanoma): 25.5 µM
TGI (SK-MEL-28 melanoma): 32.6 µM
TGI (SK-MEL-5 melanoma): 14.2 µM
TGI (SK-OV-3 ovarian): 18.1 µM
TGI (SN12C renal): 15.4 µM
TGI (SNB-19 CNS): 15.9 µM
TGI (SNB-75 CNS): 20.9 µM
TGI (SNB-78 CNS): 20.7 µM
TGI (SR leukemia): > 35.3 µM
TGI (SW-620 colon): 8.43 µM
TGI (TK-10 renal): 24 µM
TGI (U251 CNS): 5.17 µM
TGI (UACC-257 melanoma): 13.2 µM
TGI (UACC-62 melanoma): 21.4 µM
TGI (UO-31 renal): 20.2 µM
TGI (XF 498 CNS): 20.5 µM
